Measured values: US11484539B2, “Compounds and their uses for alleviating menopause-associated symptoms” (Estetra SPRL, priority 2018, dated 2022)

Test system: post-menopausal women
Assay: Weekly severity of moderate to severe VMS, dose-finding study
Assay type: in vivo
Source text: To determine the Minimum Effective Dose (MED), firstly the selection criteria required that patients presented at least 7 moderate to severe VMS/day or at least 50 moderate to severe VMS/week in the week preceding randomization. Secondly, a placebo group was included in a double-blind fashion. Thirdly, the total patient number was such that statistical significance could be obtained between separate arms of the study. Fourthly, the absolute change from baseline in weekly frequency of moderate to severe VMS was taken into account. An analysis of covariance (ANCOVA) was performed based on the untransformed change in weekly frequency of moderate to severe VMS from baseline. Finally, the change in severity from baseline was evaluated. For this, the Severity Scoring System of VMS was documented by the subjects as follows: • a score of Mild (1) for a sensation of heat without sweating; • a score of Moderate (2) for a sensation of heat with sweating/the subject is able to continue activity; and • a score of Severe (3) for a sensation of heat with sweating/which causes cessation of activity.
In addition, a severity score of zero was attributed to the patients who have experienced a 100% VMS relief during a given week.
From these score records, the severity at baseline was calculated by taking into account only moderate and severe VMS, such that the total number of moderate VMS during the 7 days of the baseline week was multiplied by 2 and added to the total number of severe VMS during the 7 days of the baseline week multiplied by 3. This total was then divided by the total number of moderate and severe VMS during the baseline week.
The severity at weeks 4 and 12 was calculated using the following formula for each of these weeks: • the number of mild VMS during 7 days multiplied by 1; • the number of moderate VMS during 7 days multiplied by 2; • the number of severe VMS during 7 days multiplied by 3. and adding the 3 resulting numbers together before dividing this total by the total number of mild, moderate and severe VMS during the 7 days of the week.
This method was used to generate the data included in Example 1 further below, under section A. b) “VMS Severity”.
In order to better analyse the data recorded in this study, treatment groups have been compared using an ANCOVA (analysis of covariance) with respect to the change in severity of moderate to severe VMS from baseline to mild, moderate and severe VMS at week 4 and week 12 for each active treatment versus placebo. For women who experienced 100% VMS relief at week 4 and/or week 12, a value of zero was attributed. The ANCOVA model includes treatment (“trt1”) as a fixed effect and baseline (“base”) as a covariate. • b) Covariate significance

With C[C@]12CC[C@@H]3c4ccc(O)cc4CC[C@H]3[C@@H]1[C@@H](O)[C@@H](O)[C@@H]2O [E4, 1,3,5 (10)-estratrien-3,15alpha,16alpha,17beta-tetrol] the “LS adjusted mean change from baseline in weekly severity of moderate to severe VMS” value (from here on “LS adjusted mean change from baseline”) (2.5 mg E4, week 4) was −0.3411, the “LS adjusted mean relative change from baseline in weekly severity of moderate to severe VMS” value (from here on “LS adjusted mean relative change”) (2.5 mg E4, week 4) was −0.1453 and the “LS adjusted mean change from baseline” value (2.5 mg E4, week 12) was −0.6296. The “LS adjusted mean relative change” value (2.5 mg E4, week 12) was −0.275, the “Mean change from baseline in weekly severity of moderate to severe VMS” value (2.5 mg E4 QD per os, week 1) was −0.1542 and the “Relative change (% from baseline) in weekly severity of moderate to severe VMS, mean” value (shortened to “Relative change (% from baseline)”) (2.5 mg E4 QD per os, week 1) was −7%. The “Mean change from baseline in weekly severity of moderate to severe VMS” value (2.5 mg E4 QD per os, week 2) was −0.2112, the “Relative change (% from baseline)” value (2.5 mg E4 QD per os, week 2) was −9% and the “Mean change from baseline in weekly severity of moderate to severe VMS” value (2.5 mg E4 QD per os, week 3) was −0.3246. The “Relative change (% from baseline)” value (2.5 mg E4 QD per os, week 3) was −14%, the “Mean change from baseline in weekly severity of moderate to severe VMS” value (2.5 mg E4 QD per os, week 4) was −0.3373 and the “Relative change (% from baseline)” value (2.5 mg E4 QD per os, week 4) was −15%. The “Mean change from baseline in weekly severity of moderate to severe VMS” value (2.5 mg E4 QD per os, week 5) was −0.3984, the “Relative change (% from baseline)” value (2.5 mg E4 QD per os, week 5) was −17% and the “Mean change from baseline in weekly severity of moderate to severe VMS” value (2.5 mg E4 QD per os, week 6) was −0.5014. The “Relative change (% from baseline)” value (2.5 mg E4 QD per os, week 6) was −22%, the “Mean change from baseline in weekly severity of moderate to severe VMS” value (2.5 mg E4 QD per os, week 7) was −0.4562 and the “Relative change (% from baseline)” value (2.5 mg E4 QD per os, week 7) was −20%. The “Mean change from baseline in weekly severity of moderate to severe VMS” value (2.5 mg E4 QD per os, week 8) was −0.5359, the “Relative change (% from baseline)” value (2.5 mg E4 QD per os, week 8) was −24% and the “Mean change from baseline in weekly severity of moderate to severe VMS” value (2.5 mg E4 QD per os, week 9) was −0.5465. For the same molecule, the “Relative change (% from baseline)” value (2.5 mg E4 QD per os, week 9) was −24%, the “Mean change from baseline in weekly severity of moderate to severe VMS” value (2.5 mg E4 QD per os, week 10) was −0.6052 and the “Relative change (% from baseline)” value (2.5 mg E4 QD per os, week 10) was −26%. For the same molecule, the “Mean change from baseline in weekly severity of moderate to severe VMS” value (2.5 mg E4 QD per os, week 11) was −0.5564, the “Relative change (% from baseline)” value (2.5 mg E4 QD per os, week 11) was −25% and the “Mean change from baseline in weekly severity of moderate to severe VMS” value (2.5 mg E4 QD per os, week 12) was −0.6279. The “Relative change (% from baseline)” value (2.5 mg E4 QD per os, week 12) was −28%, the “Difference with placebo, LS adjusted mean, absolute change in weekly severity of moderate to severe VMS” value (2.5 mg E4 vs placebo, week 4) was −0.01329 and the “Difference with placebo, LS adjusted mean, relative change in weekly severity of moderate to severe VMS” value (2.5 mg E4 vs placebo, week 4) was −0.004358. For the same molecule, the “Difference with placebo, LS adjusted mean, absolute change in weekly severity of moderate to severe VMS” value (2.5 mg E4 vs placebo, week 12) was 0.02869, the “Difference with placebo, LS adjusted mean, relative change in weekly severity of moderate to severe VMS” value (2.5 mg E4 vs placebo, week 12) was 0.004705 and the “LS adjusted mean change from baseline” value (5 mg E4, week 4) was −0.2386. The “LS adjusted mean relative change” value (5 mg E4, week 4) was −0.09556, the “LS adjusted mean change from baseline” value (5 mg E4, week 12) was −0.4026 and the “LS adjusted mean relative change” value (5 mg E4, week 12) was −0.1649. The “Mean change from baseline in weekly severity of moderate to severe VMS” value (5 mg E4 QD per os, week 1) was −0.098, the “Relative change (% from baseline)” value (5 mg E4 QD per os, week 1) was −4% and the “Mean change from baseline in weekly severity of moderate to severe VMS” value (5 mg E4 QD per os, week 2) was −0.1199. The “Relative change (% from baseline)” value (5 mg E4 QD per os, week 2) was −5%, the “Mean change from baseline in weekly severity of moderate to severe VMS” value (5 mg E4 QD per os, week 3) was −0.1574 and the “Relative change (% from baseline)” value (5 mg E4 QD per os, week 3) was −7%. For the same molecule, the “Mean change from baseline in weekly severity of moderate to severe VMS” value (5 mg E4 QD per os, week 4) was −0.2341, the “Relative change (% from baseline)” value (5 mg E4 QD per os, week 4) was −10% and the “Mean change from baseline in weekly severity of moderate to severe VMS” value (5 mg E4 QD per os, week 5) was −0.1683. For the same molecule, the “Relative change (% from baseline)” value (5 mg E4 QD per os, week 5) was −7%, the “Mean change from baseline in weekly severity of moderate to severe VMS” value (5 mg E4 QD per os, week 6) was −0.3212 and the “Relative change (% from baseline)” value (5 mg E4 QD per os, week 6) was −14%. For the same molecule, the “Mean change from baseline in weekly severity of moderate to severe VMS” value (5 mg E4 QD per os, week 7) was −0.2787, the “Relative change (% from baseline)” value (5 mg E4 QD per os, week 7) was −12% and the “Mean change from baseline in weekly severity of moderate to severe VMS” value (5 mg E4 QD per os, week 8) was −0.3239. For the same molecule, the “Relative change (% from baseline)” value (5 mg E4 QD per os, week 8) was −14%, the “Mean change from baseline in weekly severity of moderate to severe VMS” value (5 mg E4 QD per os, week 9) was −0.3249 and the “Relative change (% from baseline)” value (5 mg E4 QD per os, week 9) was −14%. For the same molecule, the “Mean change from baseline in weekly severity of moderate to severe VMS” value (5 mg E4 QD per os, week 10) was −0.3667, the “Relative change (% from baseline)” value (5 mg E4 QD per os, week 10) was −15% and the “Mean change from baseline in weekly severity of moderate to severe VMS” value (5 mg E4 QD per os, week 11) was −0.4161. The “Relative change (% from baseline)” value (5 mg E4 QD per os, week 11) was −18%, the “Mean change from baseline in weekly severity of moderate to severe VMS” value (5 mg E4 QD per os, week 12) was −0.4007 and the “Relative change (% from baseline)” value (5 mg E4 QD per os, week 12) was −17%. For the same molecule, the “Difference with placebo, LS adjusted mean, absolute change in weekly severity of moderate to severe VMS” value (5 mg E4 vs placebo, week 4) was 0.08925, the “Difference with placebo, LS adjusted mean, relative change in weekly severity of moderate to severe VMS” value (5 mg E4 vs placebo, week 4) was 0.04543 and the “Difference with placebo, LS adjusted mean, absolute change in weekly severity of moderate to severe VMS” value (5 mg E4 vs placebo, week 12) was 0.2557.
